Data on 84 compounds can be found in ChEMBL document CHEMBL5390237, “Discovery of Selective Histone Deacetylase 1 and 2 Inhibitors: Screening of a Focused Library Constructed by Click Chemistry, Kinetic Binding Analysis, and Biological Evaluation” (J Med Chem, 2023).

Broadly, the inhibition is the percentage by which the read-out fell short of the control.

This assay deals with Histone deacetylase 2 (Homo sapiens, UniProt Q92769). Put plainly: Inhibition of full-length recombinant human C-terminal GST tagged HDAC2 expressed in Sf9 insect cells using aminoluciferin peptide substrate at 100 nM preincubated for 3 hrs followed by substrate addition and measured after 30 mins by HDAC-Glo I/II chemiluminescence assay. Conditions: time 3.5 hrs.
Sequence of Histone deacetylase 2 (Q92769 whole entry): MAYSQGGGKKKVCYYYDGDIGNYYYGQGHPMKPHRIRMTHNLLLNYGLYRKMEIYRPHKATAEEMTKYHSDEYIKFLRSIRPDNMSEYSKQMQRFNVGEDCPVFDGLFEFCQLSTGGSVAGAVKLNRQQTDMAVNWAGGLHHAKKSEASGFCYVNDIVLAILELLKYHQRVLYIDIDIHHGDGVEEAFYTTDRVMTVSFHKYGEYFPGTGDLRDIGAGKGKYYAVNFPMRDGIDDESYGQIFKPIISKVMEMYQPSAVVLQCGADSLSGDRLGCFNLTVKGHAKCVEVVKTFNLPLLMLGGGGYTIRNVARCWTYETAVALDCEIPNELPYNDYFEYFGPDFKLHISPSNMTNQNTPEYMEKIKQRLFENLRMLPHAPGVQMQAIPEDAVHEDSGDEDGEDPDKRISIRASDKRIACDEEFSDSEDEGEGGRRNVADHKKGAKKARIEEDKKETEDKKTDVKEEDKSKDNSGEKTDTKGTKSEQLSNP
Consider `Nc1ccc(-c2ccsc2)cc1NC(=O)c1cn(-c2ccc(Br)cc2)nn1`, for which the inhibition was found to be 0%.
Next, `Nc1ccc(-c2cccs2)cc1NC(=O)c1ccc(-c2cn(-c3ccc(I)cc3)nn2)cc1`: 0%; `Nc1ccc(-c2cccs2)cc1NC(=O)c1cccc(-c2cn(CCc3ccc(C(F)(F)F)cc3)nn2)c1`: 0%; `Cc1cccc(CCn2cc(CCC(=O)Nc3cc(-c4ccc(F)cc4)ccc3N)nn2)c1`: 36%.
To `Nc1ccc(-c2cccs2)cc1NC(=O)c1ccc(-c2cn(CCc3ccc(C(=O)O)cc3)nn2)cc1` belongs 46%; to `Nc1ccc(-c2ccccc2)cc1NC(=O)CCc1cn(CCc2ccccc2)nn1`, 24%; to `Nc1ccc(-c2ccc(F)cc2)cc1NC(=O)c1cn(CCc2ccc(C(F)(F)F)cc2)nn1`, 0%.
To `Nc1ccc(-c2ccccc2)cc1NC(=O)CCc1cn(Cc2cccc(-c3ccccc3)c2)nn1` belongs 0%.
Regarding `Nc1ccc(-c2cccs2)cc1NC(=O)CCc1cn(CCCCCCCC(=O)O)nn1`, the inhibition came to 4%.
Next, `Nc1ccc(-c2cccs2)cc1NC(=O)CCc1cn(Cc2cccc3ccccc23)nn1`: 9%; `Nc1ccc(-c2cccnc2)cc1NC(=O)CCc1cn(CCCCCc2ccccc2)nn1`: 16%.
Next, `Nc1ccc(-c2cccs2)cc1NC(=O)CCc1cn(CCc2ccccc2)nn1`: 26%; `Nc1ccc(-c2ccsc2)cc1NC(=O)c1cn(Cc2ccc3ccccc3c2)nn1`: 3%.
`Nc1ccc(-c2ccsc2)cc1NC(=O)CCc1cn(-c2cccc3ccccc23)nn1`: the inhibition turned out to be 0%.
`Nc1ccc(-c2ccsc2)cc1NC(=O)CCc1cn(CC2CCCCC2)nn1`: the inhibition amounted to 0%.
For the compound `Cc1ccc(-n2cc(CCC(=O)Nc3cc(-c4ccccc4)ccc3N)nn2)cc1C`, the inhibition turned out to be 0%.
Next, `Nc1ccc(-c2cccnc2)cc1NC(=O)CCc1cn(CC2CCCCC2)nn1`: 0%; `Cc1ccc(-n2cc(C(=O)Nc3cc(-c4ccccc4)ccc3N)nn2)cc1C`: 0%.
Consider `Nc1ccc(-c2cccs2)cc1NC(=O)c1ccc(-c2cn(Cc3ccc4ccccc4c3)nn2)cc1`, for which the inhibition was determined as 12%.
To `Nc1ccc(-c2ccccc2)cc1NC(=O)c1cn(CCc2ccc([N+](=O)[O-])cc2)nn1` belongs 0%; to `Cc1ccc(CCn2cc(CCC(=O)Nc3cc(-c4ccc(F)cc4)ccc3N)nn2)cc1`, 25%; to `Nc1ccc(-c2cccs2)cc1NC(=O)CCc1cn(CCc2ccc([N+](=O)[O-])cc2)nn1`, 27%.
To `Nc1ccc(-c2cccs2)cc1NC(=O)c1cn(CCc2ccc(F)cc2)nn1` belongs 0%; to `Nc1ccc(-c2ccc(F)cc2)cc1NC(=O)c1cn(CCCCCCCC(=O)O)nn1`, 29%.
Next, `Nc1ccc(-c2ccccc2)cc1NC(=O)c1cn(CCc2ccccn2)nn1`: 0%.
As to `Nc1ccc(-c2cccs2)cc1NC(=O)c1ccc(-c2cn(Cc3cccc4ccccc34)nn2)cc1`, the inhibition amounted to 14%.
As to `Cc1ccc(CCn2cc(-c3ccc(C(=O)Nc4cc(-c5cccs5)ccc4N)s3)nn2)cc1`, the inhibition is 22%.
With `COc1ccc(CCn2cc(C(=O)Nc3cc(-c4cccs4)ccc3N)nn2)cc1`, the inhibition is 21%.
In the case of `Nc1ccc(-n2cc(-c3ccc(C(=O)Nc4cc(-c5cccs5)ccc4N)cc3)nn2)cc1`, the inhibition is 51%.
To `Nc1ccc(-c2cccs2)cc1NC(=O)CCc1cn(-c2ccc(O)cc2)nn1` belongs 12%; to `Nc1ccc(-c2cccs2)cc1NC(=O)CCc1cn(CCc2cccc(F)c2)nn1`, 5%; to `COc1ccc(CCn2cc(-c3ccc(C(=O)Nc4cc(-c5cccs5)ccc4N)cc3)nn2)cc1`, 40%.
To `Nc1ccc(-c2cccs2)cc1NC(=O)c1cccc(-c2cn(CCCCCCC(=O)O)nn2)c1` belongs 30%; to `Nc1ccc(-c2cccs2)cc1NC(=O)c1cn(CCCc2ccccc2)nn1`, 9%.
As for `Cc1cccc(C)c1NC(=O)Cn1cc(C(=O)Nc2cc(-c3ccsc3)ccc2N)nn1`, the inhibition is 24%.
Next, `Cc1cccc(C)c1NC(=O)Cn1cc(CCC(=O)Nc2cc(-c3ccsc3)ccc2N)nn1`: 18%; `Nc1ccc(-c2ccsc2)cc1NC(=O)CCc1cn(CCCc2ccccc2)nn1`: 19%.
Next, `Nc1ccc(-c2ccsc2)cc1NC(=O)c1cn(CCN2CCOCC2)nn1`: 0%; `Nc1ccc(-c2cccs2)cc1NC(=O)CCc1cn(CC23CC4CC(CC(C4)C2)C3)nn1`: 9%.
Next, `Nc1ccc(-c2ccccc2)cc1NC(=O)c1cn(CCc2cccc(F)c2)nn1`: 0%.
With `Cc1ccccc1CCn1cc(C(=O)Nc2cc(-c3cccs3)ccc2N)nn1`, the inhibition is 0%.
Next, `Nc1ccc(-c2cccs2)cc1NC(=O)CCc1cn(CCN2CCc3ccccc3C2)nn1`: 14%; `Nc1ccc(-c2ccccc2)cc1NC(=O)CCc1cn(CCc2ccc([N+](=O)[O-])cc2)nn1`: 13%; `Nc1ccc(-c2cccs2)cc1NC(=O)CCc1cn(Cc2ccc(-c3ccccc3)cc2)nn1`: 0%.
As to `Nc1ccc(-c2ccc(F)cc2)cc1NC(=O)c1cn(-c2ccc(O)cc2)nn1`, the inhibition is 15%.
Next, `Nc1ccc(-c2ccccc2)cc1NC(=O)CCc1cn(CCc2ccc(C(F)(F)F)cc2)nn1`: 0%; `Nc1ccc(-c2ccccc2)cc1NC(=O)c1cn(CCCCC(=O)O)nn1`: 0%; `Nc1ccc(-n2cc(CCC(=O)Nc3cc(-c4ccccc4)ccc3N)nn2)cc1`: 18%.
`Nc1ccc(-c2cccs2)cc1NC(=O)c1ccc(-c2cn(CCC34CC5CC(CC(C5)C3)C4)nn2)cc1`: the inhibition was determined as 5%.
To `Nc1ccc(-c2ccsc2)cc1NC(=O)CCc1cn(-c2ccccc2-c2ccccc2)nn1` belongs 2%; to `Nc1ccc(-c2cccs2)cc1NC(=O)CCc1cn(CCc2ccccc2[N+](=O)[O-])nn1`, 24%.
Next, `Cc1cccc(CCn2cc(CCC(=O)Nc3cc(-c4cccs4)ccc3N)nn2)c1`: 24%.
Next, `Nc1ccc(-c2ccc(F)cc2)cc1NC(=O)c1cn(CC(=O)Nc2ccc(F)cc2)nn1`: 32%; `Nc1ccc(-c2cccs2)cc1NC(=O)c1ccc(-c2cn(CCCCCc3ccccc3)nn2)s1`: 1%.
Take `Nc1ccc(-c2cccs2)cc1NC(=O)c1ccc(-c2cn(Cc3ccc(OC(F)(F)F)cc3)nn2)s1`: the inhibition was 0%.
To `Nc1ccc(-c2ccccc2)cc1NC(=O)CCc1cn(Cc2ccc3ccccc3n2)nn1` belongs 18%; to `Nc1ccc(-c2ccccc2)cc1NC(=O)c1cn(CCC2CCCC2)nn1`, 0%; to `COc1ccc(-n2cc(CCC(=O)Nc3cc(-c4cccnc4)ccc3N)nn2)cc1`, 9%.
To `Nc1ccc(-c2cccs2)cc1NC(=O)c1cccc(-c2cn(CCc3cccc(Cl)c3)nn2)c1` belongs 0%; to `Nc1ccc(-c2cccnc2)cc1NC(=O)CCc1cn(Cc2ccc(Oc3ccccc3)cc2)nn1`, 0%.
Next, `COc1ccc(-n2cc(C(=O)Nc3cc(-c4ccccc4)ccc3N)nn2)cc1`: 2%; `Nc1ccc(-c2ccccc2)cc1NC(=O)c1cn(-c2ccc([N+](=O)[O-])cc2)nn1`: 0%; `Cc1ccccc1CCn1cc(C(=O)Nc2cc(-c3ccc(F)cc3)ccc2N)nn1`: 0%.
Consider `Nc1ccc(-c2ccccc2)cc1NC(=O)c1cn(CCc2ccc(Cl)cc2)nn1`, for which the inhibition came to 0%.
To `Nc1ccc(-c2ccccc2)cc1NC(=O)CCc1cn(CS(=O)(=O)c2ccccc2)nn1` belongs 9%; to `Nc1ccc(-c2cccs2)cc1NC(=O)c1cccc(-c2cn(Cc3cccc(-c4ccccc4)c3)nn2)c1`, 0%.
Next, `Nc1ccc(-c2cccnc2)cc1NC(=O)CCc1cn(CCCCCCC(=O)O)nn1`: 0%; `Cc1ccc(-n2cc(CCC(=O)Nc3cc(-c4cccnc4)ccc3N)nn2)cc1C`: 0%.
To `Nc1ccc(-c2cccs2)cc1NC(=O)CCc1cn(C[S+]([O-])c2ccccc2)nn1` (centres undefined) belongs 17%; to `Nc1ccc(-c2ccccc2)cc1NC(=O)c1cn(/C=C/c2ccccc2)nn1`, 3%; to `Nc1ccc(-c2cccs2)cc1NC(=O)c1cn(CCCCCCCC(=O)O)nn1`, 2%.
With `Nc1ccc(-c2cccnc2)cc1NC(=O)CCc1cn(CS(=O)(=O)c2ccccc2)nn1`, the inhibition came to 4%.
To `Nc1ccc(-c2cccnc2)cc1NC(=O)CCc1cn(CCc2ccccc2)nn1` belongs 23%; to `Nc1ccc(-c2cccs2)cc1NC(=O)c1ccc(-c2cn(Cc3ccc4ccccc4n3)nn2)cc1`, 52%; to `Cc1ccccc1CCn1cc(CCC(=O)Nc2cc(-c3ccccc3)ccc2N)nn1`, 4%.
Next, `Nc1ccc(-c2ccc(F)cc2)cc1NC(=O)c1cn(CS(=O)(=O)c2ccccc2)nn1`: 7%; `Nc1ccc(-c2cccs2)cc1NC(=O)c1ccc(-c2cn(CCc3ccc(F)cc3)nn2)cc1`: 14%.
Next, `Nc1ccc(-c2ccc(F)cc2)cc1NC(=O)CCc1cn(-c2ccccc2-c2ccccc2)nn1`: 8%.
On to `Nc1ccc(-c2cccs2)cc1NC(=O)CCc1cn(-c2ccc([N+](=O)[O-])cc2)nn1`, for which the inhibition came to 15%.
To `Nc1ccc(-c2cccs2)cc1NC(=O)c1cn(CCCCCc2ccccc2)nn1` belongs 1%; to `Nc1ccc(-c2ccsc2)cc1NC(=O)CCc1cn(CC(=O)Nc2ccc(F)cc2)nn1`, 14%.
For the compound `Nc1ccc(-c2ccc(F)cc2)cc1NC(=O)CCc1cn(CCCCCC(=O)O)nn1`, the inhibition is 0%.
To `Nc1ccc(-c2cccs2)cc1NC(=O)c1ccc(-c2cn(-c3ccccc3-c3ccccc3)nn2)cc1` belongs 0%.
To `Nc1ccc(-c2ccccc2)cc1NC(=O)CCc1cn(CCc2ccc(Cl)cc2)nn1` belongs 0%.
